Target: BTK enzyme (hBTK, full-length recombinant) (Homo sapiens (Human), UniProt Q06187)
Experiment: Btk enzyme activity assay, Method B: LANCE TR-FRET
Assay type: biochemical
Conditions: 25 μM ATP, 60 minute compound & enzyme incubation
Method: Also BTK enzymatic activity was determined with the LANCE (Lanthanide Chelate Excite) TR-FRET (Time-resolved fluorescence resonance energy transfer) assay. […] The final reaction in each well of 10 μL consists of 100 pM hBTK, 2 μM biotin-A5-peptide, and 25 μM ATP. Phosphorylation reactions were allowed to proceed for 120 minutes. […] After 60 minutes incubation with detection reagents, reaction plates were read on a PerkinElmer EnVision plate reader using standard TR-FRET protocol. Briefly, excitation of donor molecules (Eu-chelate:anti-phospho-antibody) with a laser light source at 337 nm produces energy that can be transferred to Dylight-650 acceptor molecules if this donor:acceptor pair is within close proximity. Fluorescence intensity at both 665 nm (acceptor) and 615 nm (donor) are measured and a TR-FRET ratio calculated for each well (acceptor intensity/donor intensity). IC50 values were determined by 4 parameter robust fit of TR-FRET ratio values vs. (Log10) compound concentrations. BTK enzymatic activity was determined with the LANCE (Lanthanide Chelate Excite) TR-FRET (Time-resolved fluorescence resonance energy transfer) assay. […] The final reaction in each well of 10 μL consists of 50 pM hBTK, 2 μM biotin-A5-peptide, and 25 μM ATP. Phosphorylation reactions were allowed to proceed for 120 minutes. […] After 60 minutes incubation with detection reagents, reaction plates were read on a PerkinElmer EnVision plate reader using standard TR-FRET protocol. Briefly, excitation of donor molecules (Eu-chelate:anti-phospho-antibody) with a laser light source at 337 nm produces energy that can be transferred to Dylight-650 acceptor molecules if this donor:acceptor pair is within close proximity. Fluorescence intensity at both 665 nm (acceptor) and 615 nm (donor) are measured and a TR-FRET ratio calculated for each well (acceptor intensity/donor intensity). IC50 values were determined by 4 parameter robust fit of TR-FRET ratio values vs. (Log10) compound concentrations.

Sequence of BTK enzyme (hBTK, full-length recombinant) (Q06187 whole entry): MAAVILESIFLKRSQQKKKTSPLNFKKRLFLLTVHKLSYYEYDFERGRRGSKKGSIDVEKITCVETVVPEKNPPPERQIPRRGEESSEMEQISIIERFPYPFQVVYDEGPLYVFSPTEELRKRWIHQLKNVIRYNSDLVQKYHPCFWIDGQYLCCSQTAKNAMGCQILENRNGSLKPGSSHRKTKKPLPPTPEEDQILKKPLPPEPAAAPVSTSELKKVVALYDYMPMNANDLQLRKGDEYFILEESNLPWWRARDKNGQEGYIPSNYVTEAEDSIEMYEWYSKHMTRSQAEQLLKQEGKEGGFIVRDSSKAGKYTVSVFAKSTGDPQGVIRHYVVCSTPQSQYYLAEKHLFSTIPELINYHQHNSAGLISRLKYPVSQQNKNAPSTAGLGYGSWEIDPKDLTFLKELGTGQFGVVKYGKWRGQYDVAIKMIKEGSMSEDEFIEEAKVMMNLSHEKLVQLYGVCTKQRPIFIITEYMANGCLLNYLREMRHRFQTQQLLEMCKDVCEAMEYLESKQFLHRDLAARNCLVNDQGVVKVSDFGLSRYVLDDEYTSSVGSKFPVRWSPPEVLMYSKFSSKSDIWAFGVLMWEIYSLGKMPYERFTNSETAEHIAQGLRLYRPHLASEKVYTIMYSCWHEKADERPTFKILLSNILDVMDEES

SMILES | IC50
Nc1ncnc2c1c(-c1ccc(C(=O)Nc3cc(C(F)(F)F)ccn3)cc1)nn2[C@@H]1CCCc2nn(CCO)cc21 [Example 16, (R)-4-(4-amino-1-(2-(2-hydroxyethyl)-4,5,6,7-tetrahydro-2H-indazol-4-yl)-1H-pyrazolo[3,4-d]pyrimidin-3-yl)-N-(4-(trifluoromethyl)pyridin-2-yl)benzamide] | 0.45 nM
Cn1cc2c(n1)CCC[C@@H]2n1nc(-c2ccc(C(=O)Nc3cc(C(F)(F)F)ccn3)cc2)c2c(N)ncnc21 [Example 10, (S)-4-(4-amino-1-(2-methyl-4,5,6,7-tetrahydro-2H-indazol-4-yl)-1H-pyrazolo[3,4-d]pyrimidin-3-yl)-N-(4-(trifluoromethyl)pyridin-2-yl)benzamide] | 83 nM
CCn1cc2c(n1)CCC[C@H]2n1nc(-c2ccc(C(=O)Nc3cc(C(F)(F)F)ccn3)cc2)c2c(N)ncnc21 [Example 12, (R)-4-(4-amino-1-(2-ethyl-4,5,6,7-tetrahydro-2H-indazol-4-yl)-1H-pyrazolo[3,4-d]pyrimidin-3-yl)-N-(4-(trifluoromethyl)pyridin-2-yl)benzamide] | 13 nM
Nc1ncnc2c1c(-c1ccc(C(=O)Nc3cc(C(F)(F)F)ccn3)cc1)nn2[C@H]1CCCc2[nH]ncc21 [Example 6, (S)-4-(4-amino-1-(4,5,6,7-tetrahydro-1H-indazol-4-yl)-1H-pyrazolo[3,4-d]pyrimidin-3-yl)-N-(4-(trifluoromethyl)pyridin-2-yl)benzamide] | 60 nM
Cn1ncc2c1CCC[C@@H]2c1nc(-c2ccc(C(=O)Nc3cc(C(F)(F)F)ccn3)cc2)c2c(N)nccn12 [Example 24, (S)-4-(8-amino-3-(1-methyl-4,5,6,7-tetrahydro-1H-indazol-4-yl)imidazo[1,5-a]pyrazin-1-yl)-N-(4-(trifluoromethyl)pyridin-2-yl)benzamide] | 740 nM
Nc1nccn2c([C@H]3CCn4c(nnc4C(F)(F)F)C3)nc(-c3ccc(C(=O)Nc4cc(C(F)(F)F)ccn4)cc3)c12 [Example 21, (S)-4-(8-amino-3-(3-(trifluoromethyl)-5,6,7,8-tetrahydro-[1,2,4]triazolo[4,3-a]pyridin-7-yl)imidazo[1,5-a]pyrazin-1-yl)-N-(4-(trifluoromethyl)pyridin-2-yl)benzamide] | 0.81 nM
Nc1nccn2c([C@@H]3CCn4c(nnc4C(F)(F)F)C3)nc(-c3ccc(C(=O)Nc4cc(C(F)(F)F)ccn4)cc3)c12 [Example 22, (R)-4-(8-amino-3-(3-(trifluoromethyl)-5,6,7,8-tetrahydro-[1,2,4]triazolo[4,3-a]pyridin-7-yl)imidazo[1,5-a]pyrazin-1-yl)-N-(4-(trifluoromethyl)pyridin-2-yl)benzamide] | 11 nM
Nc1nccn2c([C@@H]3CCCn4c(C5CC5)nnc43)nc(-c3ccc(C(=O)Nc4cc(C(F)(F)F)ccn4)cc3)c12 [Example 19, (S)-4-(8-amino-3-(3-cyclopropyl-5,6,7,8-tetrahydro-[1,2,4]triazolo[4,3-a]pyridin-8-yl)imidazo[1,5-a]pyrazin-1-yl)-N-(4-(trifluoromethyl)pyridin-2-yl)benzamide] | 67 nM
CCn1ncc2c1CCC[C@@H]2n1nc(-c2ccc(C(=O)Nc3cc(C(F)(F)F)ccn3)cc2)c2c(N)ncnc21 [Example 13, (S)-4-(4-amino-1-(1-ethyl-4,5,6,7-tetrahydro-1H-indazol-4-yl)-1H-pyrazolo[3,4-d]pyrimidin-3-yl)-N-(4-(trifluoromethyl)pyridin-2-yl)benzamide] | 5.9 nM
Nc1ncnc2c1c(-c1ccc(C(=O)Nc3cc(C(F)(F)F)ccn3)cc1)nn2[C@H]1CCCc2nn(CCO)cc21 [Example 18, (S)-4-(4-amino-1-(2-(2-hydroxyethyl)-4,5,6,7-tetrahydro-2H-indazol-4-yl)-1H-pyrazolo[3,4-d]pyrimidin-3-yl)-N-(4-(trifluoromethyl)pyridin-2-yl)benzamide] | 1.3 nM
Nc1ncnc2c1c(-c1ccc(C(=O)Nc3cc(C(F)(F)F)ccn3)cc1)nn2[C@@H]1CCCc2c1cnn2CCO [Example 15, (R)-4-(4-amino-1-(1-(2-hydroxyethyl)-4,5,6,7-tetrahydro-1H-indazol-4-yl)-1H-pyrazolo[3,4-d]pyrimidin-3-yl)-N-(4-(trifluoromethyl)pyridin-2-yl)benzamide] | 1.1 nM
CC(C)Oc1ccnc(NC(=O)c2ccc(-c3nc(N4CCn5c(nnc5C(F)(F)F)C4)n4ccnc(N)c34)cc2)c1 [Example 25, 4-(8-amino-3-(3-(trifluoromethyl)-5,6-dihydro-[1,2,4]triazolo[4,3-a]pyrazin-7(8H)-yl)imidazo[1,5-a]pyrazin-1-yl)-N-(4-isopropoxypyridin-2-yl)benzamide] | 43 nM
Cn1ncc2c1CCC[C@@]2(O)c1nc(-c2ccc(C(=O)Nc3cc(C(F)(F)F)ccn3)cc2)c2c(N)nccn12 [Example 2, (S)-4-(8-amino-3-(4-hydroxy-1-methyl-4,5,6,7-tetrahydro-1H-indazol-4-yl)imidazo[1,5-a]pyrazin-1-yl)-N-(4-(trifluoromethyl)pyridin-2-yl)benzamide] | 0.33 nM
Cn1ncc2c1CCC[C@H]2n1nc(-c2ccc(C(=O)Nc3cc(C(F)(F)F)ccn3)cc2)c2c(N)ncnc21 [Example 7, (R)-4-(4-amino-1-(1-methyl-4,5,6,7-tetrahydro-1H-indazol-4-yl)-1H-pyrazolo[3,4-d]pyrimidin-3-yl)-N-(4-(trifluoromethyl)pyridin-2-yl)benzamide] | 5.9 nM
Nc1ncnc2c1c(-c1ccc(C(=O)Nc3cc(C(F)(F)F)ccn3)cc1)nn2[C@H]1CCCc2c1cnn2CCO [Example 17, (S)-4-(4-amino-1-(1-(2-hydroxyethyl)-4,5,6,7-tetrahydro-1H-indazol-4-yl)-1H-pyrazolo[3,4-d]pyrimidin-3-yl)-N-(4-(trifluoromethyl)pyridin-2-yl)benzamide] | 2.1 nM
Nc1ncnc2c1c(-c1ccc(C(=O)Nc3cc(C(F)(F)F)ccn3)cc1)nn2[C@@H]1CCCc2[nH]ncc21 [Example 5, (R)-4-(4-amino-1-(4,5,6,7-tetrahydro-1H-indazol-4-yl)-1H-pyrazolo[3,4-d]pyrimidin-3-yl)-N-(4-(trifluoromethyl)pyridin-2-yl)benzamide] | 0.52 nM
Cn1ncc2c1CCC[C@H]2c1nc(-c2ccc(C(=O)Nc3cc(C(F)(F)F)ccn3)cc2)c2c(N)nccn12 [Example 23, (R)-4-(8-amino-3-(1-methyl-4,5,6,7-tetrahydro-1H-indazol-4-yl)imidazo[1,5-a]pyrazin-1-yl)-N-(4-(trifluoromethyl)pyridin-2-yl)benzamide] | 1000 nM
Cn1cc2c(n1)CCC[C@H]2n1nc(-c2ccc(C(=O)Nc3cc(C(F)(F)F)ccn3)cc2)c2c(N)ncnc21 [Example 8, (R)-4-(4-amino-1-(2-methyl-4,5,6,7-tetrahydro-2H-indazol-4-yl)-1H-pyrazolo[3,4-d]pyrimidin-3-yl)-N-(4-(trifluoromethyl)pyridin-2-yl)benzamide] | 3.2 nM
Nc1nccn2c([C@H]3CCCn4c(C5CC5)nnc43)nc(-c3ccc(C(=O)Nc4cc(C(F)(F)F)ccn4)cc3)c12 [Example 20, (R)-4-(8-amino-3-(3-cyclopropyl-5,6,7,8-tetrahydro-[1,2,4]triazolo[4,3-a]pyridin-8-yl)imidazo[1,5-a]pyrazin-1-yl)-N-(4-(trifluoromethyl)pyridin-2-yl)benzamide] | 56 nM
